Assay results from PubChem BioAssay (NCI).
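The compound was tested at five concentrations on cells cultured in 96-well plates, with a 48-hour exposure period. TGI: total growth inhibition.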

Experiments:
Assay in all cases: inhibition of tumour cell growth, NCI panel, 48 h
[1] = tested on: HCT-116 colon
[2] = tested on: SK-MEL-28 melanoma
[3] = tested on: SNB-75 CNS
[4] = tested on: SNB-78 CNS
[5] = tested on: NCI-H460 lung
[6] = tested on: A549 NSCLC
[7] = tested on: DMS 114 small cell lung
[8] = tested on: SK-MEL-5 melanoma
[9] = tested on: RPMI-8226 leukemia
[10] = tested on: A498 renal
[11] = tested on: HCT-15 colon
[12] = tested on: NCI-H226 lung
[13] = tested on: RXF-631 renal
[14] = tested on: RXF 393 renal
[15] = tested on: HOP-62 NSCLC
[16] = tested on: UO-31 renal
[17] = tested on: HCC-2998 colon
[18] = tested on: COLO 205 colon
[19] = tested on: SW-620 colon
[20] = tested on: HT29 colon
[21] = tested on: UACC-62 melanoma
[22] = tested on: NCI-H23 lung
[23] = tested on: NCI-H522 lung
[24] = tested on: SR leukemia
[25] = tested on: SF-539 CNS
[26] = tested on: LXFL 529 NSCLC
[27] = tested on: M14 melanoma
[28] = tested on: MALME-3M melanoma
[29] = tested on: U251 CNS
[30] = tested on: KM20L2 colon
[31] = tested on: ACHN renal
[32] = tested on: TK-10 renal
[33] = tested on: SN12C renal
[34] = tested on: K-562 leukemia
[35] = tested on: SF-268 CNS
[36] = tested on: SF-295 CNS
[37] = tested on: DLD-1 colon
[38] = tested on: HOP-18 NSCLC
[39] = tested on: OVCAR-5 ovarian
[40] = tested on: SNB-19 CNS
[41] = tested on: LOX IMVI melanoma
[42] = tested on: UACC-257 melanoma
[43] = tested on: 786-0 renal
[44] = tested on: OVCAR-4 ovarian
[45] = tested on: KM12 colon
[46] = tested on: OVCAR-3 ovarian
[47] = tested on: HL-60(TB) leukemia
[48] = tested on: MOLT-4 leukemia
[49] = tested on: DMS 273 small cell lung
[50] = tested on: CAKI-1 renal
[51] = tested on: M19-MEL melanoma
[52] = tested on: OVCAR-8 ovarian
[53] = tested on: IGROV1 ovarian
[54] = tested on: HOP-92 NSCLC
[55] = tested on: CCRF-CEM leukemia
[56] = tested on: SK-OV-3 ovarian
[57] = tested on: EKVX NSCLC
[58] = tested on: XF 498 CNS
[59] = tested on: SK-MEL-2 melanoma

COC1(OC)CC2C(=O)N(Cc3ccccc3)C1C(S(=O)(=O)c1ccccc1)C2S(=O)(=O)c1ccccc1 (configuration not stated)
TGI [1]: 29.9 µM
TGI [2]: 26.8 µM
TGI [3]: 27.6 µM
TGI [4]: 39.1 µM
TGI [5]: 82.7 µM
TGI [6]: 75 µM
TGI [7]: 16 µM
TGI [8]: 34 µM
TGI [9]: 45.5 µM
TGI [10]: 58.2 µM
TGI [11]: 14.8 µM
TGI [12]: 35.2 µM
TGI [13]: 32.6 µM
TGI [14]: 25.6 µM
TGI [15]: > 100 µM
TGI [16]: 31.3 µM
TGI [17]: 31.1 µM
TGI [18]: 16.9 µM
TGI [19]: 13.6 µM
TGI [20]: 28.4 µM
TGI [21]: 26.2 µM
TGI [22]: 28.1 µM
TGI [23]: 5.12 µM
TGI [24]: 85.4 µM
TGI [25]: 27.3 µM
TGI [26]: 12.1 µM
TGI [27]: 28.5 µM
TGI [28]: 29.3 µM
TGI [29]: 27.2 µM
TGI [30]: 31.4 µM
TGI [31]: 22.4 µM
TGI [32]: 28.5 µM
TGI [33]: 25.4 µM
TGI [34]: 46.2 µM
TGI [35]: 29.3 µM
TGI [36]: > 100 µM
TGI [37]: 13.3 µM
TGI [38]: 31 µM
TGI [39]: 34.1 µM
TGI [40]: > 100 µM
TGI [41]: 21.8 µM
TGI [42]: 21.1 µM
TGI [43]: 30.7 µM
TGI [44]: 28.6 µM
TGI [45]: 34.1 µM
TGI [46]: 22.9 µM
TGI [47]: 17.3 µM
TGI [48]: 46.6 µM
TGI [49]: 27.7 µM
TGI [50]: 26.9 µM
TGI [51]: 23.8 µM
TGI [52]: 23.4 µM
TGI [53]: 32.3 µM
TGI [54]: 34 µM
TGI [55]: 13.7 µM
TGI [56]: 54.2 µM

[N-]=[N+]=NC12CC3C4CC5CC3C(C1)C(C5)C4C2
TGI [1]: > 100 µM
TGI [2]: > 100 µM
TGI [3]: > 100 µM
TGI [4]: > 100 µM
TGI [5]: > 100 µM
TGI [6]: > 100 µM
TGI [7]: > 100 µM
TGI [8]: > 100 µM
TGI [9]: > 100 µM
TGI [10]: > 100 µM
TGI [12]: > 100 µM
TGI [13]: > 100 µM
TGI [15]: > 100 µM
TGI [16]: > 100 µM
TGI [17]: > 100 µM
TGI [18]: > 100 µM
TGI [19]: > 100 µM
TGI [20]: > 100 µM
TGI [21]: > 100 µM
TGI [22]: > 100 µM
TGI [23]: > 100 µM
TGI [24]: > 100 µM
TGI [25]: > 100 µM
TGI [26]: > 100 µM
TGI [27]: > 100 µM
TGI [28]: > 100 µM
TGI [29]: > 100 µM
TGI [31]: > 100 µM
TGI [57]: > 100 µM
TGI [32]: > 100 µM
TGI [33]: > 100 µM
TGI [58]: > 100 µM
TGI [34]: > 100 µM
TGI [35]: > 100 µM
TGI [36]: > 100 µM
TGI [37]: > 100 µM
TGI [38]: > 100 µM
TGI [39]: > 100 µM
TGI [40]: > 100 µM
TGI [41]: > 100 µM
TGI [42]: > 100 µM
TGI [43]: > 100 µM
TGI [44]: > 100 µM
TGI [59]: > 100 µM
TGI [45]: > 100 µM
TGI [46]: > 100 µM
TGI [48]: > 100 µM
TGI [49]: > 100 µM
TGI [50]: > 100 µM
TGI [51]: > 100 µM
TGI [52]: > 100 µM
TGI [53]: > 100 µM
TGI [54]: > 100 µM
TGI [55]: > 100 µM
TGI [56]: > 100 µM

COc1cccc(/C=C/c2cc(OC)c(OC)c(OC)c2)c1
TGI [1]: > 100 µM
TGI [2]: > 100 µM
TGI [3]: 60.1 µM
TGI [4]: > 100 µM
TGI [5]: > 100 µM
TGI [6]: > 100 µM
TGI [7]: > 100 µM
TGI [8]: > 100 µM
TGI [9]: > 100 µM
TGI [10]: > 100 µM
TGI [11]: > 100 µM
TGI [12]: > 100 µM
TGI [13]: > 100 µM
TGI [15]: > 100 µM
TGI [16]: > 100 µM
TGI [17]: > 100 µM
TGI [18]: > 100 µM
TGI [19]: > 100 µM
TGI [20]: > 100 µM
TGI [21]: > 100 µM
TGI [22]: > 100 µM
TGI [23]: > 100 µM
TGI [24]: > 100 µM
TGI [25]: > 100 µM
TGI [26]: > 100 µM
TGI [27]: > 100 µM
TGI [28]: > 100 µM
TGI [29]: > 100 µM
TGI [30]: 87.7 µM
TGI [31]: > 100 µM
TGI [57]: > 100 µM
TGI [33]: > 100 µM
TGI [58]: > 100 µM
TGI [34]: > 100 µM
TGI [35]: > 100 µM
TGI [37]: > 100 µM
TGI [39]: > 100 µM
TGI [40]: > 100 µM
TGI [42]: > 100 µM
TGI [43]: > 100 µM
TGI [59]: > 100 µM
TGI [45]: > 100 µM
TGI [46]: > 100 µM
TGI [48]: > 100 µM
TGI [49]: > 100 µM
TGI [51]: > 100 µM
TGI [52]: > 100 µM
TGI [53]: > 100 µM
TGI [54]: > 100 µM
TGI [55]: > 100 µM
TGI [56]: > 100 µM
